Reference: paper PMC3814616, “BRAF inhibitors suppress apoptosis through off-target inhibition of JNK signaling” (eLife, 2013)

Tests used:
[1] = system: phospho-ERK; test: Western blot, ERK phosphorylation in SRB1 and NHEK cells; format: cell-based, human; conditions: 0.6 μM (NHEK) or 1.2 μM (SRB1)
Text: Figure 2. […] DOI: http://dx.doi.org/10.7554/eLife.00969.010 [drawing 5]

[2] = system: phospho-JNK; test: Western blot, UV-induced phospho-JNK in cSCC and HaCaT cell lines; format: cell-based, human; conditions: 0.05 μM, HaCaT and SRB1 cells
[3] = system: A375 and WM35 BRAF^V600E melanoma cell lines; test: Growth of BRAF^V600E melanoma cell lines; format: cell-based, human; conditions: bioequivalent doses: dabrafenib 0.05 μM, PLX4720 1.0 μM
[4] = system: cSCC in treated patients; conditions: 150 mg PO BID, ref Falchook et al., 2012, Hauschild et al., Long et al.; cited from earlier work
[5] = biological target: T1, full length MAP4K5 (Homo sapiens, UniProt Q9Y4K4); test: In vitro kinase assay (Reaction Biology); format: biochemical; conditions: up to 1 μM
T1 construct: and full length MAP4K5 (MBP substrate, ATP 10 μM) (Reaction Biology); purchased Reaction Biology

[6] = Serum concentration in humans; format: in vivo, human; conditions: 150 mg PO BID vs vemurafenib 960 mg PO BID
[7] = biological target: T2, MKK4 (amino acids 33-end) (Homo sapiens, UniProt P45985); test: In vitro kinase assay (Reaction Biology); format: biochemical; conditions: up to 1 μM
T2 construct: amino acids 33-end MKK4 (JNK1 substrate, ATP 0.1 μM); purchased Reaction Biology

[8] = 150 mg PO BID in humans, ref Falchook et al., 2012; cited from earlier work
[9] = system: A375 melanoma cell line; conditions: ref Greger et al., 2012; cited from earlier work
[10] = biological target: T3, human full-length ZAK (Homo sapiens, UniProt Q9NYL2); test: In vitro kinase assay (Reaction Biology); format: biochemical
T3 construct: In vitro kinase assays were performed using human full-length ZAK; purchased Reaction Biology

[11] = system: E1A and HRAS^G12V-transformed Craf−/− MEFs; test: Soft agar colony formation; format: cell-based, mouse; conditions: 0.05 μM
[12] = system: SRB1 cells; test: UV-induced apoptosis, FACS Annexin V+, TMRE-low; format: cell-based, human; conditions: 0.05 μM
[13] = system: E1A and HRAS^G12V-transformed wild-type (WT) MEFs; test: Soft agar colony formation; format: cell-based, mouse; conditions: 0.05 μM
[14] = system: HaCaT cells; test: UV-induced apoptosis, FACS Annexin V+, TMRE-low; format: cell-based, human; conditions: 0.05 μM

T1 sequence (Q9Y4K4 whole entry): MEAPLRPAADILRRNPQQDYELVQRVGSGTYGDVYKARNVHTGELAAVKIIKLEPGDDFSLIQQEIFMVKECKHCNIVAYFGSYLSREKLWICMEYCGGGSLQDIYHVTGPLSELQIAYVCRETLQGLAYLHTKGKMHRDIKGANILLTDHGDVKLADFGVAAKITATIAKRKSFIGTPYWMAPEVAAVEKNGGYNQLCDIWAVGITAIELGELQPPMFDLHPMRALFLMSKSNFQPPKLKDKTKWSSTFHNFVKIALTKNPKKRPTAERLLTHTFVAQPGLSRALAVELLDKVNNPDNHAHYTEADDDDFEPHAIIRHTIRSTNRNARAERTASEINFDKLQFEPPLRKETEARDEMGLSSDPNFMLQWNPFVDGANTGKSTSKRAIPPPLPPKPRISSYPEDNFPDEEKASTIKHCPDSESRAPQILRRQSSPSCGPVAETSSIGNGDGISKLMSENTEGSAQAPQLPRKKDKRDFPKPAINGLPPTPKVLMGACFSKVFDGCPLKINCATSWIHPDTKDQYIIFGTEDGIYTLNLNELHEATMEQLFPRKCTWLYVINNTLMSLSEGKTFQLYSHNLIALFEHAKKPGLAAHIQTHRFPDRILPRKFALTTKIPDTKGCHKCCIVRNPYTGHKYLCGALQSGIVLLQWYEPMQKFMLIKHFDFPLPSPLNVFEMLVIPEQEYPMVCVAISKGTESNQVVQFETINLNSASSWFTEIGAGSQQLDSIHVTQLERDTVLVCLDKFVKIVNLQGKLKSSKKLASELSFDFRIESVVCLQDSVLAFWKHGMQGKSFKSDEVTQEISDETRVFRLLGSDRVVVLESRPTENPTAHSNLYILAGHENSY
T2 sequence (P45985 33-399 limits assumed): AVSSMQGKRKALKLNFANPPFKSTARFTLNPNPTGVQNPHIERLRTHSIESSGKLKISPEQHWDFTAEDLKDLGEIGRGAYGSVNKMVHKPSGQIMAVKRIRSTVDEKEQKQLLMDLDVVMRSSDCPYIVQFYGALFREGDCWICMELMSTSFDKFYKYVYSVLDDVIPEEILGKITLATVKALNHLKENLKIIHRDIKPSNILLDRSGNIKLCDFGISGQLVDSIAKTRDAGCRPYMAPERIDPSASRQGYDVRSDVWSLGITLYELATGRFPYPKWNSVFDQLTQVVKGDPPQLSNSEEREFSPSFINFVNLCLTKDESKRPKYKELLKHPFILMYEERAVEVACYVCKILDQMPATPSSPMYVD

## Cn1cnc2c(F)c(Nc3ccc(Br)cc3Cl)c(C(=O)NOCCO)cc21 [AZD6244]
[1]
  ERK phosphorylation and activation: effectively abrogated

## CC(C)(C)c1nc(-c2cccc(NS(=O)(=O)c3c(F)cccc3F)c2F)c(-c2ccnc(N)n2)s1 [dabrafenib]
[2]
  UV-induced phospho-JNK induction: fails to suppress
[3]
  growth of A375 and WM35 cells: suppress the growth
[4]
  overall aggregated cSCC rate: 6.1%
[5]
  inhibition of MAP4K5: no significant inhibition
[6]
  peak serum concentration, fold lower than mean sustained serum levels of vemurafenib: over 50 fold
[7]
  inhibition of MKK4: no significant inhibition
[8]
  peak serum concentrations: 1.55 µM
[9]
  GI50: < 10 nM
[10]; MBP substrate, ATP 2.5 μM, read-out: biochemical IC50
  IC50: 28.9 ± 2.23 nM
[10]; at 0.01 μM
  retained activity of ZAK kinase: over 64%
[11]
  colony formation: fails to confer a significant growth advantage
[12]
  UV-induced apoptosis: fails to suppress
[13]
  colony formation: significant growth advantage
[14]
  UV-induced apoptosis: fails to suppress
